Measurements as given in patent publication US20240246918A1, “COMPOUNDS AND COMPOSITIONS AS EIF4E INHIBITORS AND THE USES THEREOF” (Ribometrix, Inc., priority 2022, published 2024).
pIC50: −log10 of the molar value.

Experiments:
[1] = test system: COLO 205 colorectal tumor cells; assay: Tumor cell viability inhibition assay (CellTiter-Glo 2.0, 72 hours); format: cell-based; conditions: Homo sapiens, COLO 205, 72 h, COLO 205 cell viability
In short: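 COLO 205 cells (1500/well, RPMI-1640 + 10% FBS) exposed for 72 h to an 11-point, 4-fold dilution series; cellular ATP read by CellTiter-Glo 2.0 luminescence. Data normalized to DMSO and maximum-inhibition controls; IC50 from 4-parameter curve fit.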

human eIF4E protein = molecular target: T1, human eIF4E protein (Homo sapiens, UniProt P06730); assay: Biochemical competitive binding assay (TR-FRET competition, EDA-m7GDP-ATTO-647N probe); conditions: read-out: hEIF4E TR-FRET IC50
T1 construct: purchased Novus NBP-45314
In short: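 His-tagged human eIF4E (4 nM) was preincubated with Eu-anti-His antibody (2.5 nM) and added to compound (11-point, 4-fold dilutions) for 15 min. Then 5 nM EDA-m7GDP-ATTO-647N was added for 15 min, in HEPES pH 7.5, 100 mM KCl. The 665/620 TR-FRET ratio was normalized to controls, and IC50 was taken from 4-parameter fits.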

[2] = test system: cyclin D1 protein levels in COLO 205 cells; assay: Cyclin D1 cellular inhibition assay (HTRF, 6 hours); format: cell-based; conditions: Homo sapiens, COLO 205, 6 h, 6 hours of compound treatment, Cyclin D1 protein levels by HTRF, read-out: COLO 205 6 h Cyclin D1 TR-FRET IC50
Protocol: The effect of compound treatment on cyclin D1 protein levels in COLO 205 cells was assessed, as follows. Test compound plates were prepared with a Tecan D300e Digital Dispenser as 11-point concentration-response curves with a final DMSO concentration of 1%. COLO 205 (ATCC, CCL-222) colorectal tumor cells were seeded to assay-ready plates in RPMI-1640 medium supplemented with 10% FBS at 20,000 cells in a volume of 6 microliters per well. After 6 hours of compound treatment, cells were lysed and Cyclin D1 protein levels were assessed by an HTRF assay (PerkinElmer #64CYCD1ITPEG), according to the manufacturer's protocol. Time-resolved fluorescence was measured using a Clariostar Plus microplate reader (BMG Labtech) or equivalent. After normalization to the average of DMSO control and maximum inhibition control wells, concentration-response data were plotted and standard 4-parameter curve fitting (GraphPad Prism v9.4.1) was utilized to determine IC50 values.

T1 sequence (P06730 whole entry): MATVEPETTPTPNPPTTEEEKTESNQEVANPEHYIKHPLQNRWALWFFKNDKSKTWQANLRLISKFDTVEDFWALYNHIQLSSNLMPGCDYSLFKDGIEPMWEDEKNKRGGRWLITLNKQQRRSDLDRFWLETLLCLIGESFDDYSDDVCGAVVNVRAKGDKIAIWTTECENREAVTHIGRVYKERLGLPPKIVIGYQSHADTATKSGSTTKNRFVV

Compound	pIC50 [1]	pIC50 (human eIF4E protein)	pIC50 [2]
Cc1cc(-c2cc(Cl)ccc2OCCn2c(C)nc3c(c2=O)CC(N(C)C2(C4CCC4)CC2)CC3)c2scc(C(=O)NS(C)(=O)=O)c2n1 (single isomer, unassigned) [Compound 231]	4.70 to 5.30	> 7.00	4.70 to 5.30
Cc1cc(-c2cc(Cl)ccc2OCCn2c(C)nc3c(c2=O)CC(N(C)CC2CC(F)(F)C2)CC3)c2scc(C(=O)NC3CC(F)(F)C3)c2n1 (stereo not drawn) [Compound 145]	4.70 to 5.30	5.30 to 6.30	< 4.70
Cc1cc(-c2cc(Cl)ccc2OCCn2c(C)nc3c(c2=O)CC(N(C)Cc2ccc(=O)[nH]c2)CC3)c2scc(C(=O)O)c2n1 (single isomer, unassigned) [Compound 235]	< 4.70	> 7.00	< 4.70
Cc1cc(-c2cc(Cl)ccc2OCCn2c(C)nc3c(c2=O)C[C@H](N(C)[C@H]2CC[C@@](C)(O)C2)CC3)c2scc(C(=O)O)c2n1 (single isomer, unassigned) [Compound 183]	< 4.70	> 7.00	< 4.70
Cc1cc(-c2cc(Cl)ccc2OCCn2c(C)nc3c(c2=O)CC(N(C)CC2CC(F)(F)C2)CC3)c2scc(C(=O)O)c2n1 (single isomer, unassigned) [Compound 258]	> 5.30	> 7.00	> 5.30
Cc1cc(-c2cc(Cl)ccc2OCCn2c(C)nc3c(c2=O)CC(N(C)CC24CC(C2)C4)CC3)c2scc(C(=O)O)c2n1 (stereo not drawn) [Compound 205]	> 5.30	> 7.00	> 5.30
Cc1cc(-c2cc(Cl)ccc2OCCn2c(C)nc3c(c2=O)CC(N2C[C@@H]4CC(F)(F)C[C@@H]4C2)CC3)c2scc(C(=O)O)c2n1 (stereo partly drawn) [Compound 175]	> 5.30	> 7.00	> 5.30
Cc1cc(-c2cc(Cl)ccc2OCCn2c(C)nc3c(c2=O)CC(N2CCc4ncncc4C2)CC3)c2scc(C(=O)O)c2n1 (stereo not drawn) [Compound 157]	4.70 to 5.30	> 7.00	4.70 to 5.30
Cc1cc(-c2cc(Cl)ccc2OCCn2c(C)nc3c(c2=O)CC(N2CCc4[nH]ncc4C2)CC3)c2scc(C(=O)O)c2n1 (stereo not drawn) [Compound 159]	< 4.70	> 7.00	< 4.70
Cc1cc(-c2cc(Cl)ccc2OCCn2c(C)nc3c(c2=O)C[C@H](N(C)[C@H]2CC[C@@](C)(O)CC2)CC3)c2scc(C(=O)O)c2n1 (single isomer, unassigned) [Compound 224]	< 4.70	> 7.00	< 4.70
Cc1cc(-c2cc(Cl)ccc2OCCn2c(C)nc3c(c2=O)CC(N2CCC4(CC2)CC4(F)F)CC3)c2scc(C(=O)O)c2n1 (stereo not drawn) [Compound 174]	> 5.30	> 7.00	> 5.30

The remaining lines, values ahead:

pIC50 [1]	pIC50 (human eIF4E protein)	pIC50 [2]	Compound
> 5.30	> 7.00	> 5.30	Cc1cc(-c2cc(Cl)ccc2OCCn2c(C)nc3c(c2=O)C[C@@H](N(C)C[C@H]2C[C@H](C(F)(F)F)C2)CC3)c2scc(C(=O)O)c2n1 (single isomer, unassigned) [Compound 221]
> 5.30	> 7.00	> 5.30	Cc1cc(-c2cc(Cl)ccc2OCCn2c(C)nc3c(c2=O)CC(N2CCc4sccc4C2)CC3)c2scc(C(=O)O)c2n1 (stereo not drawn) [Compound 181]
> 5.30	> 7.00	> 5.30	Cc1cc(-c2cc(Cl)ccc2OCCn2c(C)nc3c(c2=O)CC(N(C)Cc2ccccn2)CC3)c2scc(C(=O)O)c2n1 (stereo not drawn) [Compound 200]
> 5.30	> 7.00	> 5.30	COc1cc(CNC2CCc3nc(C)n(CCOc4ccc(Cl)cc4-c4cc(C)nc5c(C(=O)O)csc45)c(=O)c3C2)ccn1 (stereo not drawn) [Compound 154]
> 5.30	> 7.00	> 5.30	Cc1cc(-c2cc(Cl)ccc2OCCn2c(C)nc3c(c2=O)CC(N2CCC(OC4CC4)CC2)CC3)c2scc(C(=O)O)c2n1 (stereo not drawn) [Compound 179]
> 5.30	> 7.00	> 5.30	Cc1cc(-c2cc(Cl)ccc2OCCn2c(C)nc3c(c2=O)CC(N(C)Cc2cnccn2)CC3)c2scc(C(=O)O)c2n1 (stereo not drawn) [Compound 199]
